Assay results as given in patent US20250375529A1, “PHOSPHORYLCHOLINE-TUFTSIN CONJUGATE FOR TREATING OCULAR INFLAMMATION” (TARSIER PHARMA LTD., priority 2017, published 2025).

How the values were obtained:
[1] = system: mice with collagen-induced arthritis; settings: subcutaneous (5 μg/mouse) and oral (50 μg/mouse and 250 μg/mouse) administration; cited from earlier work
lupus prone mice = settings: subcutaneous (5 μg/mouse) and oral (50 μg/mouse and 250 μg/mouse) administration; cited from earlier work
[2] = system: mice with dextran sodium sulfate induced colitis; settings: subcutaneous (5 μg/mouse) and oral (50 μg/mouse and 250 μg/mouse) administration; cited from earlier work
[3] = system: experimental mouse models of autoimmune diseases; settings: in the three mouse models; cited from earlier work
anti-CD3-activated PBMCs = test: Effects of TPC on cytokine secretion by anti-CD3-activated PBMCs (Luminex); type: cell-based
Protocol: FIGS. 1A-1B: Very low dose TPC has a strong immunomodulatory effect. Bar graphs showing the effects of TPC at a range of doses, on anti-CD3-activated PBMCs 48 h after treatment. Secretion of pro-inflammatory cytokine TNFα (1A) and anti-inflammatory cytokine IL-10 (1B) are shown. Column statistics, one-sample t test compared to a hypothetical value of 100 was used. *-P<0.05, **-P<0.01, ***-P<0.005
The immunomodulatory effect of TPC was determined in vitro on PBMCs from healthy donors. PBMCs were harvested and allowed to adhere to culture plates. TPC at various concentrations, or PBS or dexamethasone as controls were then added and an hour later anti-CD3 stimulating antibody was added to induce an inflammatory state. 48 hours later the supernatant was harvested from the cells and cytokine levels were assayed using standard Luminex protocols. Levels of cytokine induction was interpolated from standard curves, using 5-parameter non-linear regression analyses, where y=(A+((B−A)/(1+(((B−E)/(E−A))*((x/C)^D))))). The interpolated data was then normalized to vehicle controls (anti-CD3 stimulation alone). […] Once again, the effect was greatest at very low doses, as the 0.005 μg/ml TPC dose had the strongest effect causing a 33% increase in IL-10 levels. […] (FIG. 1B).

[4] = system: THP-1 human monocyte cell line polarized to M1 macrophages; test: IL-10 secretion by THP-1-derived M1 macrophages; type: cell-based; settings: THP-1 M0 (100 ng/ml PMA 48 hours) polarized to M1 with 10 ng/ml LPS; TPC 400 ug/ml, dexamethasone 1 uM, IL-4 and IL-13 20 ng/ml; versus PBS control
Protocol: FIG. 2: TPC enhances the anti-inflammatory effect of steroids. A bar graph showing the effect of IL-4/IL-13, TPC, dexamethasone and dexamethasone+TPC on IL-10 secretion by macrophages. *-P<0.05, **-P<0.01
To test the hypothesis that a combination of steroids and TPC will have a beneficial effect on treating inflammation, cells of the THP-1 human monocyte cell line were differentiated to M0 macrophages with 100 ng/ml PMA for 48 hours and then polarized to M1 macrophages with 10 ng/ml LPS. These cells were then tested with the following compounds: PBS (negative control), IL-4 and IL-13 (20 ng/ml, positive control as they induce the cells to a M2 phenotype), TPC (400 ug/ml), dexamethasone (1 uM), and a combination of dexamethasone (1 uM) and TPC (400 ug/ml). […] Further, since TPC itself reduces pro-inflammatory cytokine secretion as well, it may be used, not just in combination, but to reduce the total dose of steroid administered.

[5] = 0.005 μg/ml TPC, PBMCs from healthy donors, anti-CD3 stimulation, supernatant at 48 hours, normalized to vehicle control (anti-CD3 alone)

In the case of Tuftsin-PhosphorylCholine [TPC], the joint damage [1] is listed as “prevented”, the glomerulonephritis onset (lupus prone mice) is listed as “prevented” and the colitis [2] is listed as “reduced”. For the same substance, the “T and B regulatory cells” value [3] was “enhanced expansion”, the “anti-inflammatory IL-10” value [3] was “increased” and the “proinflammatory cytokine expression such as IL-6, IL-17, TNFα, IFNγ” value [3] was “inhibited”. For the same substance, the “increase in IL-10 levels” value (anti-CD3-activated PBMCs; [5]) was 33%, the “lowering of TNFα levels” value (anti-CD3-activated PBMCs; [5]) was 41% and the “increase on IL-10 secretion as compared to dexamethasone” value (anti-CD3-activated PBMCs; anti-CD3-activated PBMCs, 48 hours, TPC relative to dexamethasone) was 220%. The IL-10 expression [4] was “strong increase”.
